According to patent EP4772186A1, “USE AND COMPOSITION OF POSTBIOTIC OF LACTOBACILLUS PARACASEI ET-22” (Inner Mongolia Yili Industrial Group Co., Ltd., priority 2023, dated 2025):

What was measured:
Solobacterium moorei = assay: in vitro oral biofilm model, sequencing: relative abundance; format: cell-based
Experimental: 100 µl of saliva was added to a 24-well plate, then 100 µl of the corresponding concentration solution was added respectively to the experimental groups, and finally 800 µl of SHI medium was added. The plate was placed in an anaerobic box and cultured anaerobically at 37°C for 10 hours. Then, the supernatant was discarded, and the multi-species biofilm adhered to the well plate was obtained. After discarding the supernatant from the incubated biofilm, the biofilm adhered to the bottom of the well plate was re-suspended with sterile water by pipetting, transferred to a 1.5 ml centrifuge tube, and stored until gene sequencing was performed.
Based on sequencing results, halitosis-causing pathogenic bacteria in the biofilm were identified. Four key halitosis-causing pathogenic bacteria were identified: Fusobacterium nucleatum, Streptococcus mutans, Prevotella intermedia, and Solobacterium moorei. All four bacteria had been proven to be positively correlated with VSC concentration. […] Therefore, this example adopts lysate, NAD, 2-hydroxy-3-phenylpropionic acid, and polypeptide GP(Hyp)GAG to intervene in halitosis-causing pathogenic bacteria in the biofilm, evaluating changes in the relative abundance of pathogenic bacteria after intervention. Additionally, Prevotella intermedia is a periodontal pathogen that can produce indole via the tryptophan metabolic pathway. […]

biofilm = assay: confocal laser scanning microscopy (CLSM) of biofilm thickness; format: cell-based, halitosis subjects (saliva)
Experimental: (§1) Lysate group: A HA disc was placed in a 96-well plate. 10 µl of saliva was added to the 96-well plate, followed by separate addition of ET-22 viable bacteria (1.0×10^9 CFU/ml), ET-22 heat-inactivated bacterial cells (obtained by inactivating viable bacteria at 1.0×10^9 CFU/ml), and lysate (obtained by inactivating and filtering viable bacteria at 1.0×10^9 CFU/ml), each at 10 µl. Then, 80 µl of SHI medium was added. The 96-well plate was placed in an anaerobic box and cultured anaerobically at 37°C for 10 hours.
as §1, with “NAD” for “Lysate”, “heat-inactivating” for “inactivating”, “NAD (100 µg/ml),” for “lysate (obtained by inactivating and filtering viable bacteria at 1.0×10^9 CFU/ml),”
2-hydroxy-3-phenylpropionic acid group: A HA disc was placed in a 96-well plate. 10 µl of saliva was added to the 96-well plate, followed by separate addition of ET-22 viable bacteria (1.0×10^9 CFU/ml), ET-22 heat-inactivated bacterial cells (obtained by heat-inactivating viable bacteria at 1.0×10^9 CFU/ml), and 2-hydroxy-3-phenylpropionic acid (100 µg/ml), each at 10 µl. Then, 80 µl of SHI medium was added. […]

In the case of `O=C(O)C(O)Cc1ccccc1` (stereo not shown) [2-hydroxy-3-phenylpropionic acid], the “growth of Solobacterium moorei (relative abundance)” value (Solobacterium moorei; multi-species biofilm, 37°C 10 hours) is reported as “significantly inhibit the growth”, the “inhibitory effect on Solobacterium moorei” value (Solobacterium moorei; relative to ET-22 viable bacteria or ET-22 heat-inactivated bacteria) is reported as “better” and the biofilm thickness (biofilm; compared with CK group, HA disc, pure components 100 µg/ml, others from 1.0×10^9 CFU/ml, 37°C 10 hours) is reported as “significantly reduce the biofilm thickness”. For the same molecule, the “intervention effect on biofilm thickness” value (biofilm; relative to ET-22 viable bacteria and ET-22 heat-inactivated bacteria) was “superior”.
